Here are results for 26 compounds from patent US8148391B2 (Cephalon, Inc., priority 2006, dated 2012).

The target in the first test is T1, baculovirus-expressed ALK (Homo sapiens, UniProt Q9UM73).
T1 construct: host or cells: baculovirus expression system
T1 sequence (Q9UM73 19-1620): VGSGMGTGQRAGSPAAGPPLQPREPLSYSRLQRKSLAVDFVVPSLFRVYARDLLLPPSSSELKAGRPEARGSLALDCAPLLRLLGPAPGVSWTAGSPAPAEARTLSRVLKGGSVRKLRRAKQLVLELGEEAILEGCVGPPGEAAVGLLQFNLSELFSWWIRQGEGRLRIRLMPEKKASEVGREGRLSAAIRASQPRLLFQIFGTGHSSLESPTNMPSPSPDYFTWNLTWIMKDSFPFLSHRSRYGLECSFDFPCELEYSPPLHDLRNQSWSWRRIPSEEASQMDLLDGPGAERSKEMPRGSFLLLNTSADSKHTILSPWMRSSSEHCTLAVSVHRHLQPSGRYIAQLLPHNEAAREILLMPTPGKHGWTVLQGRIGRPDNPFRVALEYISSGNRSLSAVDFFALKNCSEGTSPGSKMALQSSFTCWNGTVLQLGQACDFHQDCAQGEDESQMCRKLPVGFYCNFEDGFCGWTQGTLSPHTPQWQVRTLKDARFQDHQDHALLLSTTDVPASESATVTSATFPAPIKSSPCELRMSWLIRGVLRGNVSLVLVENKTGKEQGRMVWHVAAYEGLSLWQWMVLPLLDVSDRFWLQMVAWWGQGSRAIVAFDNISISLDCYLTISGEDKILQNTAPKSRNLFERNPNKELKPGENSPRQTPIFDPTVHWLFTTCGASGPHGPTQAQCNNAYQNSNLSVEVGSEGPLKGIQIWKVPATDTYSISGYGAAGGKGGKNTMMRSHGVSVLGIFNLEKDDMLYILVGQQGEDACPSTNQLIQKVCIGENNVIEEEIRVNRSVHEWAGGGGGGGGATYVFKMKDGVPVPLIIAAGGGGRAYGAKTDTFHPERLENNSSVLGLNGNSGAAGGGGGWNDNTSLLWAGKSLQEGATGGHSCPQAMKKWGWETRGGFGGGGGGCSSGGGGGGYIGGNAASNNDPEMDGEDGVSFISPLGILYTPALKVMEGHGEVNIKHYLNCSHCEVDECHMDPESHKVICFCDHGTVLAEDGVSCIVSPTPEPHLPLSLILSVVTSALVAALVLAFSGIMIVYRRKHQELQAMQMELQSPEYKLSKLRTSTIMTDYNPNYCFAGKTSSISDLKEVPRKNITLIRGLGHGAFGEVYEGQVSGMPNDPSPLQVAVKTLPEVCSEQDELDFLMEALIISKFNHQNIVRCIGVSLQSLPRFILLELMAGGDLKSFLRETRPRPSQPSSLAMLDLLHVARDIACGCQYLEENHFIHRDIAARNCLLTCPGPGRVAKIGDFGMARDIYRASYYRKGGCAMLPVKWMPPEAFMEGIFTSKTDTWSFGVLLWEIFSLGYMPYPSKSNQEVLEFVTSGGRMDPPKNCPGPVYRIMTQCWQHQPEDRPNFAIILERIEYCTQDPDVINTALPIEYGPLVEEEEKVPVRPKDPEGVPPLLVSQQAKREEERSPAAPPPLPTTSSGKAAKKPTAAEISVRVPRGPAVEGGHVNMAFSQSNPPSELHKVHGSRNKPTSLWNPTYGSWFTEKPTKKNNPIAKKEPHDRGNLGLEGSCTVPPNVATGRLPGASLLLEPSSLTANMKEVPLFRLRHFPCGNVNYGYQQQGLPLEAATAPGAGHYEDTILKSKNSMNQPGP
The experiment in a line: ALK Kinase Assay (ELISA-type, time-resolved fluorescence). In kind it is biochemical. The note with it: 1 μM ATP (Km level), 30 ng/ml ALK, 37° C., 15 minutes; read-out: ALK Activity (ALK kinase inhibition, IC50 class). How it is done:
Briefly, each 96-well plate was coated with 100 μL/well of 10 μg/mL substrate (phospholipase C-γ) in Tris-buffered saline (TBS). […] The reaction was initiated by adding enzyme (30 ng/ml ALK) and was allowed to proceed at 37° C. for 15 minutes. Detection of the phosphorylated product was performed by adding 100 μl/well of Eu-N1 labeled PT66 antibody (Perkin Elmer # AD0041).
Data analysis was performed using ActivityBase (IDBS, Guilford, UK). IC50 values were calculated by plotting percent inhibition versus log10 of the concentration of compound and fitting to the nonlinear regression sigmoidal dose-response (variable slope) equation in XLFit (IDBS, Guilford, UK).
For orientation: ELISA stands for enzyme-linked immunosorbent assay.
`CNC(=O)c1cccc(F)c1Nc1nc(Nc2ccc3c(c2)NC(=O)C(N)CC3(C)C)ncc1Cl` (centres unmarked) [Example 1272, 2-[2-(3-Amino-5,5-dimethyl-2-oxo-2,3,4,5-tetrahydro-1H-1-benzazepin-8-ylamino)-5-chloro-pyrimidin-4-ylamino]-3-fluoro-N-methyl-benzamide]: the IC50 was < 100 nM.
Regarding `CNC(=O)c1cccc(F)c1Nc1nc(Nc2ccc3c(c2)NC(=O)C(NC(=O)CN(C)C)CC3(C)C)ncc1Cl` (centres unmarked) [Example 1285, 2-{5-Chloro-2-[3-(2-dimethylamino-acetylamino)-5,5-dimethyl-2-oxo-2,3,4,5-tetrahydro-1H-1-benzazepin-8-ylamino]-pyrimidin-4-ylamino}-3-fluoro-N-methyl-benzamide], the IC50 was 100 to 1000 nM.
`CNC(=O)c1cccc(F)c1Nc1nc(Nc2ccc3c(c2)NC(=O)C(NC(C)=O)CC3(C)C)ncc1Cl` (centres unmarked) [Example 1289, 2-[2-(3-Acetylamino-5,5-dimethyl-2-oxo-2,3,4,5-tetrahydro-1H-1-benzazepin-8-ylamino)-5-chloro-pyrimidin-4-ylamino]-3-fluoro-N-methyl-benzamide]: the IC50 fell in the range of 100 to 1000 nM.
Take `CNC(=O)c1cccc(F)c1Nc1nc(Nc2ccc3c(c2)NC(=O)C(NC(=O)COC)CC3(C)C)ncc1Cl` (centres unmarked) [Example 1292, 2-{5-Chloro-2-[3-(2-methoxy-acetylamino)-5,5-dimethyl-2-oxo-2,3,4,5-tetrahydro-1H-1-benzazepin-8-ylamino]-pyrimidin-4-ylamino}-3-fluoro-N-methyl-benzamide]: the IC50 is 100 to 1000 nM.
Regarding `CNC(=O)c1cccc(F)c1Nc1nc(Nc2ccc3c(c2)NC(=O)C(NC(=O)N2CCCC2)CC3(C)C)ncc1Cl` (centres unmarked) [Example 1295, Pyrrolidine-1-carboxylic acid {8-[5-chloro-4-(2-fluoro-6-methylcarbamoyl-phenylamino)-pyrimidin-2-ylamino]-5,5-dimethyl-2-oxo-2,3,4,5-tetrahydro-1H-1-benzazepin-3-yl}-amide], the IC50 lay within 100 to 1000 nM.
With `CNC(=O)c1cccc(F)c1Nc1nc(Nc2ccc3c(c2)NC(=O)C(NC(=O)OC)CC3(C)C)ncc1Cl` (centres unmarked) [Example 1299, {8-[5-Chloro-4-(2-fluoro-6-methylcarbamoyl-phenylamino)-pyrimidin-2-ylamino]-5,5-dimethyl-2-oxo-2,3,4,5-tetrahydro-1H-1-benzazepin-3-yl}-carbamic acid methyl ester], the IC50 is 100 to 1000 nM.
Same read-out and setting: the figure for `CNC(=O)c1cccc(F)c1Nc1nc(Nc2ccc3c(c2)NC(=O)CCC3)ncc1Cl` [Example 1375, 2-[5-Chloro-2-(2-oxo-2,3,4,5-tetrahydro-1H-benzo[b]azepin-8-ylamino)-pyrimidin-4-ylamino]-3-fluoro-N-methyl-benzamide] is 100 to 1000 nM; for `C#CCNC(=O)c1ccccc1Nc1nc(Nc2ccc3c(c2)CCCC(=O)N3C)ncc1Cl` [Example 1388, 2-[5-Chloro-2-(1-methyl-2-oxo-2,3,4,5-tetrahydro-1H-benzo[b]azepin-7-ylamino)-pyrimidin-4-ylamino]-N-prop-2-ynyl-benzamide] it is < 100 nM; for `C#CCN(C)C(=O)c1ccccc1Nc1nc(Nc2ccc3c(c2)CCCC(=O)N3C)ncc1Cl` [Example 1390, [5-Chloro-2-(1-methyl-2-oxo-2,3,4,5-tetrahydro-1H-benzo[b]azepin-7-ylamino)-pyrimidin-4-ylamino]-N-methyl-N-prop-2-ynyl-benzamide] it is < 100 nM.
The same measure, in the same setting: as for `CCOC(=O)N1CCCOc2ccc(Nc3ncc(Cl)c(Nc4c(F)cccc4C(=O)NC)n3)cc21` [Example 1410, 2-[5-Chloro-4-(2-fluoro-6-methylcarbamoyl-phenylamino)-pyrimidin-2-ylamino]-7,8-dihydro-6H-5-oxa-9-aza-benzocycloheptene-9-carboxylic acid ethyl ester], the figure is 100 to 1000 nM.
The same measure, in the same setting: the figure for `CCOC(=O)N1CCCOc2cc(Nc3ncc(Cl)c(Nc4c(F)cccc4C(=O)NC)n3)ccc21` [Example 1417, 3-[5-Chloro-4-(2-fluoro-6-methylcarbamoyl-phenylamino)-pyrimidin-2-ylamino]-7,8-dihydro-6H-5-oxa-9-aza-benzocycloheptene-9-carboxylic acid ethyl ester] is 100 to 1000 nM; for `CNC(=O)c1cccc(F)c1Nc1nc(Nc2ccc3c(c2)OCCCN3C(=O)OCCCN(C)C)ncc1Cl` [Example 1426, 3-[5-Chloro-4-(2-fluoro-6-methylcarbamoyl-phenylamino)-pyrimidin-2-ylamino]-7,8-dihydro-6H-5-oxa-9-aza-benzocycloheptene-9-carboxylic acid 3-dimethylamino-propyl ester] it is 100 to 1000 nM; for `CNC(=O)c1cccc(F)c1Nc1nc(Nc2ccc3c(c2)OCCCN3C(=O)OC)ncc1Cl` [Example 1431, 3-[5-Chloro-4-(2-fluoro-6-methylcarbamoyl-phenylamino)-pyrimidin-2-ylamino]-7,8-dihydro-6H-5-oxa-9-aza-benzocycloheptene-9-carboxylic acid methyl ester] it is 100 to 1000 nM.
In the case of `CNC(=O)c1cccc(F)c1Nc1nc(Nc2ccc3c(c2)OCCCN3C(=O)OC(C)C)ncc1Cl` [Example 1432, 3-[5-Chloro-4-(2-fluoro-6-methylcarbamoyl-phenylamino)-pyrimidin-2-ylamino]-7,8-dihydro-6H-5-oxa-9-aza-benzocycloheptene-9-carboxylic acid isopropyl ester], the IC50 was 100 to 1000 nM.

The test is the same for the next values; noted with them: ALK kinase inhibition, 1 μM ATP; read-out: ALK Activity.
Turning to `CNC(=O)c1cccc(F)c1Nc1nc(Nc2ccc3c(c2)NC(=O)CCC3(C)C)ncc1Cl` [Example 1574, 2-[5-Chloro-2-(5,5-dimethyl-2-oxo-2,3,4,5-tetrahydro-1H-benzo[b]azepin-8-ylamino)-pyrimidin-4-ylamino]-3-fluoro-N-methyl-benzamide], the IC50 is 100 to 1000 nM.
Take `CCN1C(=O)CCC(C)(C)c2ccc(Nc3ncc(Cl)c(Nc4c(F)cccc4C(=O)NC)n3)cc21` [Example 1576, 2-[5-Chloro-2-(1-ethyl-5,5-dimethyl-2-oxo-2,3,4,5-tetrahydro-1H-benzo[b]azepin-8-ylamino)-pyrimidin-4-ylamino]-3-fluoro-N-methyl-benzamide]: the IC50 is < 100 nM.
Consider `CNC(=O)c1cccc(F)c1Nc1nc(Nc2ccc3c(c2)N(CCOC)C(=O)CCC3(C)C)ncc1Cl` [Example 1581, 2-{5-Chloro-2-[1-(2-methoxy-ethyl)-5,5-dimethyl-2-oxo-2,3,4,5-tetrahydro-1H-benzo[b]azepin-8-ylamino]-pyrimidin-4-ylamino}-3-fluoro-N-methyl-benzamide], for which the IC50 was < 100 nM.
Still for that read-out and setting: as for `CNC(=O)c1cccc(F)c1Nc1nc(Nc2ccc3c(c2)N(C(C)C)C(=O)CCC3(C)C)ncc1Cl` [Example 1588, 2-[5-Chloro-2-(1-isopropyl-5,5-dimethyl-2-oxo-2,3,4,5-tetrahydro-1H-benzo[b]azepin-8-ylamino)-pyrimidin-4-ylamino]-3-fluoro-N-methyl-benzamide], the figure is < 100 nM; as for `CNC(=O)c1cccc(F)c1Nc1nc(Nc2ccc3c(c2)N(CC(C)C)C(=O)CCC3(C)C)ncc1Cl` [Example 1592, 2-[5-Chloro-2-(1-isobutyl-5,5-dimethyl-2-oxo-2,3,4,5-tetrahydro-1H-benzo[b]azepin-8-ylamino)-pyrimidin-4-ylamino]-3-fluoro-N-methyl-benzamide], < 100 nM.
In the case of `CCN1CCCOc2cc(Nc3ncc(Cl)c(Nc4c(F)cccc4C(=O)NC)n3)ccc21` [Example 1692, 2-[5-Chloro-2-(9-ethyl-6,7,8,9-tetrahydro-5-oxa-9-aza-benzocyclohepten-3-ylamino)-pyrimidin-4-ylamino]-3-fluoro-N-methyl-benzamide], the IC50 is < 100 nM.
For `CCN1CCCOc2ccc(Nc3ncc(Cl)c(Nc4c(F)cccc4C(=O)NC)n3)cc21` [Example 1697, 2-[5-Chloro-2-(9-ethyl-6,7,8,9-tetrahydro-5-oxa-9-aza-benzocyclohepten-2-ylamino)-pyrimidin-4-ylamino]-3-fluoro-N-methyl-benzamide], the IC50 fell in the range of 100 to 1000 nM.
Still for that read-out and setting: the figure for `CNC(=O)c1cccc(F)c1Nc1nc(Nc2ccc3c(c2)N(C(C)=O)CCCO3)ncc1Cl` [Example 1701, 2-[2-(9-Acetyl-6,7,8,9-tetrahydro-5-oxa-9-aza-benzocyclohepten-2-ylamino)-5-chloro-pyrimidin-4-ylamino]-3-fluoro-N-methyl-benzamide] is 100 to 1000 nM; for `CNC(=O)c1cccc(F)c1Nc1nc(Nc2ccc3c(c2)OCCCN3C(=O)CN2CCCC2)ncc1Cl` [Example 1714, 2-{5-Chloro-2-[9-(2-pyrrolidin-1-yl-acetyl)-6,7,8,9-tetrahydro-5-oxa-9-aza-benzocyclohepten-3-ylamino]-pyrimidin-4-ylamino}-3-fluoro-N-methyl-benzamide] it is 100 to 1000 nM.
Still for that read-out and setting: the figure for `CNC(=O)c1cccc(F)c1Nc1nc(Nc2ccc3c(c2)OCCCN3CCN2CCCC2)ncc1Cl` [Example 1718, 2-{5-Chloro-2-[9-(2-pyrrolidin-1-yl-ethyl)-6,7,8,9-tetrahydro-5-oxa-9-aza-benzocyclohepten-3-ylamino]-pyrimidin-4-ylamino}-3-fluoro-N-methyl-benzamide] is < 100 nM; for `CNC(=O)c1cccc(F)c1Nc1nc(Nc2ccc3c(c2)OCCCN3)ncc1Cl` [Example 1723, 2-[5-Chloro-2-(6,7,8,9-tetrahydro-5-oxa-9-aza-benzocyclohepten-3-ylamino)-pyrimidin-4-ylamino]-3-fluoro-N-methyl-benzamide] it is 100 to 1000 nM.
The same measure, in the same setting: as for `CNC(=O)c1cccc(F)c1Nc1nc(Nc2ccc3c(c2)OCCCN3C(C)=O)ncc1Cl` [Example 1724, 2-[2-(9-Acetyl-6,7,8,9-tetrahydro-5-oxa-9-aza-benzocyclohepten-3-ylamino)-5-chloro-pyrimidin-4-ylamino]-3-fluoro-N-methyl-benzamide], the figure is 100 to 1000 nM.
